From PubChem BioAssay (NCI)
Values joined by “and” are separate entries in the source; they are usually repeats but may differ in a detail not shown here. Equal values may be shown once.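 Step 1: Grow cells in 96-well plates. Step 2: Expose to compound for 48 hours at 5 concentrations. Step 3: Interpolate endpoints linearly; if unreached, use highest concentration. Abbreviation: GI50, concentration required for 50% inhibition of growth. TGI marks complete inhibition of growth.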

Columns and labels:
Experiment in all cases: NCI tumour cell line growth inhibition, 48 h
[1] = system: SK-MEL-28 melanoma
[2] = system: HT29 colon
[3] = system: HCC-2998 colon
[4] = system: OVCAR-8 ovarian
[5] = system: SF-268 CNS
[6] = system: MALME-3M melanoma
[7] = system: KM12 colon
[8] = system: M19-MEL melanoma
[9] = system: M14 melanoma
[10] = system: UACC-62 melanoma
[11] = system: SK-OV-3 ovarian
[12] = system: NCI-H23 lung
[13] = system: NCI-H226 lung
[14] = system: A549 NSCLC
[15] = system: NCI-H460 lung
[16] = system: TK-10 renal
[17] = system: K-562 leukemia
[18] = system: CAKI-1 renal
[19] = system: COLO 205 colon
[20] = system: NCI-H522 lung
[21] = system: DLD-1 colon
[22] = system: RPMI-8226 leukemia
[23] = system: KM20L2 colon
[24] = system: SK-MEL-2 melanoma
[25] = system: DMS 114 small cell lung
[26] = system: SF-295 CNS
[27] = system: LXFL 529 NSCLC
[28] = system: XF 498 CNS
[29] = system: 786-0 renal
[30] = system: HCT-116 colon
[31] = system: UO-31 renal
[32] = system: OVCAR-4 ovarian
[33] = system: ACHN renal
[34] = system: SN12C renal
[35] = system: CCRF-CEM leukemia
[36] = system: SNB-19 CNS
[37] = system: EKVX NSCLC
[38] = system: HCT-15 colon
[39] = system: SW-620 colon
[40] = system: SNB-75 CNS
[41] = system: OVCAR-3 ovarian
[42] = system: SR leukemia
[43] = system: MOLT-4 leukemia
[44] = system: HOP-62 NSCLC
[45] = system: HOP-18 NSCLC
[46] = system: SF-539 CNS
[47] = system: U251 CNS
[48] = system: IGROV1 ovarian
[49] = system: SK-MEL-5 melanoma
[50] = system: LOX IMVI melanoma
[51] = system: DMS 273 small cell lung
[52] = system: RXF 393 renal
[53] = system: HOP-92 NSCLC
[54] = system: UACC-257 melanoma
[55] = system: SNB-78 CNS
[56] = system: A498 renal
[57] = system: HL-60(TB) leukemia

With `COc1cc(C2c3cc4c(cc3[C@@H](NCCCN3CCCC3=O)C3COC(=O)[C@H]23)OCO4)cc(OC)c1O` (some centres undefined) the TGI [1] was > 100 µM, the TGI [2] was > 100 µM and the TGI [3] was 85.7 µM. For the same compound, the TGI [4] was > 100 µM, the GI50 [5] was 9.24 µM and 1.58 µM and the TGI [5] was > 100 µM. The GI50 [6] was 11 µM, the TGI [6] was > 100 µM and the TGI [7] was > 100 µM. The TGI [8] was > 100 µM, the TGI [9] was > 100 µM and the GI50 [10] was 4.03 µM and 0.677 µM. The TGI [10] was 26 µM and > 17.5 µM, the TGI [11] was 39.4 µM and the GI50 [12] was 5.27 µM. For the same compound, the TGI [12] was 32.2 µM, the GI50 [13] was 3.38 µM and 1.35 µM and the TGI [13] was 23 µM and 9.53 µM. For the same compound, the GI50 [14] was 6.23 µM and 1.01 µM, the TGI [14] was 40 µM and > 17.5 µM and the GI50 [15] was 1.54 µM and 0.58 µM. The TGI [15] was 15.7 µM and > 17.5 µM, the TGI [16] was > 100 µM and the TGI [17] was > 100 µM. The TGI [18] was > 100 µM, the TGI [19] was > 100 µM and the GI50 [20] was 5.65 µM. The TGI [20] was 84.3 µM, the TGI [21] was > 100 µM and the TGI [22] was > 100 µM. The TGI [23] was > 100 µM, the TGI [24] was > 100 µM and the GI50 [25] was 2.89 µM and 0.701 µM. The TGI [25] was 9.46 µM and > 17.5 µM, the TGI [26] was > 100 µM and the TGI [27] was > 100 µM. The TGI [28] was > 100 µM, the TGI [29] was 60.4 µM and > 17.5 µM and the TGI [30] was > 100 µM. For the same compound, the TGI [31] was 43.7 µM and > 17.5 µM, the GI50 [32] was > 100 µM and the TGI [32] was > 100 µM. The TGI [33] was 16.5 µM, the TGI [34] was 80.9 µM and > 17.5 µM and the TGI [35] was > 100 µM. For the same compound, the GI50 [36] was 38 µM and > 17.5 µM, the TGI [36] was > 100 µM and the TGI [37] was > 100 µM. For the same compound, the TGI [38] was > 100 µM, the TGI [39] was > 100 µM and the TGI [40] was 6.81 µM. For the same compound, the TGI [41] was > 100 µM, the TGI [42] was > 100 µM and the TGI [43] was > 100 µM. For the same compound, the GI50 [44] was 5.45 µM and 0.712 µM, the TGI [44] was 34.3 µM and > 17.5 µM and the TGI [45] was > 100 µM. The GI50 [46] was 3.65 µM, the TGI [46] was 21.4 µM and the TGI [47] was 63 µM and > 17.5 µM. For the same compound, the TGI [48] was > 100 µM, the GI50 [49] was 4.21 µM and 0.526 µM and the TGI [49] was 33.5 µM and > 17.5 µM. For the same compound, the GI50 [50] was 8.13 µM and 0.813 µM, the TGI [50] was 33.7 µM and > 17.5 µM and the GI50 [51] was 3.59 µM and 0.476 µM. For the same compound, the TGI [51] was 21.3 µM and > 17.5 µM, the TGI [52] was > 100 µM and the TGI [53] was 71.1 µM and > 17.5 µM.

`C=C1CC[C@@H]2C(C)(C)C(O)CCC2(C)C1COc1ccc2ccc(=O)oc2c1` (some centres undefined) gave a TGI [1] of 32.2 µM, a TGI [2] of 37.3 µM and a TGI [3] of 34.8 µM. It also gave a TGI [4] of 33.5 µM, a TGI [5] of 36.7 µM and a TGI [6] of 32.1 µM. For the same compound, the TGI [7] was 29.8 µM, the TGI [8] was 32.5 µM and the TGI [9] was 33.2 µM. It also gave a TGI [10] of 29.4 µM, a TGI [54] of 32.6 µM and a TGI [11] of 55.2 µM. The TGI [12] was 34.6 µM, the TGI [13] was 33.3 µM and the TGI [14] was 32.6 µM. The TGI [15] was 23.5 µM, the TGI [16] was 36.9 µM and the TGI [17] was 44.1 µM. For the same compound, the TGI [19] was 28.1 µM, the TGI [20] was 29.8 µM and the TGI [21] was 34.4 µM. For the same compound, the TGI [22] was 33.8 µM, the TGI [23] was 40.5 µM and the TGI [24] was 32 µM. For the same compound, the TGI [25] was 28.2 µM, the TGI [26] was 29.7 µM and the TGI [27] was 23.7 µM. For the same compound, the TGI [28] was 29.6 µM, the TGI [29] was 42.2 µM and the TGI [30] was 28.8 µM. The TGI [31] was 29.4 µM, the TGI [55] was 39.2 µM and the TGI [32] was 29.7 µM. For the same compound, the TGI [33] was 30.5 µM, the TGI [34] was 30 µM and the TGI [35] was 49 µM. The TGI [36] was 37.4 µM, the TGI [37] was 37.4 µM and the TGI [38] was 28.3 µM. For the same compound, the TGI [39] was 42.4 µM, the TGI [40] was 32.2 µM and the TGI [41] was 32.6 µM. The TGI [42] was 56.9 µM, the TGI [43] was 39.8 µM and the TGI [44] was 33.4 µM. For the same compound, the TGI [45] was 35 µM, the TGI [56] was 56.8 µM and the TGI [46] was 31.3 µM. For the same compound, the TGI [47] was 34.3 µM, the TGI [48] was 33.5 µM and the TGI [50] was 32 µM. For the same compound, the TGI [51] was 27.3 µM, the TGI [57] was 36.3 µM and the TGI [52] was 35.5 µM. The TGI [53] was 35.4 µM.
